Each molecule was assayed against MAPK14 (human) (UniProt Q16539) (assay: Assessment of MAPK14 Kinase Activity).
MAPK14 (human), sequence (Q16539 whole entry, looked up): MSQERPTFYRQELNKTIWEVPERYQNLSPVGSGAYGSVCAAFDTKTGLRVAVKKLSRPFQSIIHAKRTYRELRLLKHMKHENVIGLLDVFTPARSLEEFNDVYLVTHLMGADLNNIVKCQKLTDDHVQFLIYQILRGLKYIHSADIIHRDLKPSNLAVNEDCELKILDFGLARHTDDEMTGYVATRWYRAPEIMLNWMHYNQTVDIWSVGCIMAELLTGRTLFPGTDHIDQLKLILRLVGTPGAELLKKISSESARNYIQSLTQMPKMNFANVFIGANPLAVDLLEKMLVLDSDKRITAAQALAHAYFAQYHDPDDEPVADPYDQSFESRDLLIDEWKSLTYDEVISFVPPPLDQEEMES

| SMILES | IC50 [nM] |
| --- | --- |
| CCOC(=O)c1sc2c(ccc(=O)n2CC2CC2)c1C(O)c1ccccc1 (centres undefined) | ≤ 1000 |
| CCOC(=O)c1sc2c(ccc(=O)n2-c2ccccc2)c1NCc1ccccc1 | ≤ 1000 |
| CCOC(=O)c1sc2c(ccc(=O)n2-c2ccccc2)c1C(O)c1cccc(Cl)c1 (centres undefined) | ≤ 1000 |
| CCOC(=O)c1sc2c(ccc(=O)n2-c2ccccc2)c1NCc1c(F)cccc1F | ≤ 1000 |
| CCOC(=O)c1sc2c(ccc(=O)n2-c2ccccc2)c1NNc1ccc(C)cc1 | ≤ 1000 |
| CCOC(=O)c1sc2c(ccc(=O)n2-c2ccccc2)c1C(O)c1cccc(C)c1 (centres undefined) | ≤ 1000 |
| N#Cc1sc2c(ccc(=O)n2-c2ccccc2)c1C(O)c1ccccc1 (centres undefined) | ≤ 1000 |
| CCOC(=O)c1sc2c(ccc(=O)n2-c2ccccc2)c1Oc1ccccc1 | ≤ 1000 |
| NC(=O)c1sc2c(ccc(=O)n2-c2ccccc2)c1Sc1ccccc1 | ≤ 1000 |
| CCOC(=O)c1sc2c(ccc(=O)n2-c2ccccc2)c1Sc1ccccc1 | ≤ 1000 |

Other lines, results leading:

| IC50 [nM] | SMILES |
| --- | --- |
| ≤ 1000 | CCOC(=O)c1sc2c(ccc(=O)n2-c2ccccc2)c1Cc1ccccc1 |
| ≤ 1000 | N#Cc1sc2c(ccc(=O)n2-c2ccccc2)c1NCc1ccccc1 |
| ≤ 1000 | CCOC(=O)c1sc2c(ccc(=O)n2-c2ccccc2)c1Sc1cccc(C)c1 |
| ≤ 1000 | CCOC(=O)c1sc2c(ccc(=O)n2-c2ccccc2)c1C(O)c1ccccc1 (centres undefined) |
| ≤ 1000 | CCOC(=O)c1sc2c(ccc(=O)n2-c2ccccc2)c1NS(=O)(=O)c1ccccc1 |
| ≤ 1000 | CCOC(=O)c1sc2c(ccc(=O)n2-c2ccccc2)c1NC(=O)c1ccc(N)cc1 |
| ≤ 1000 | Cc1cccc(C(O)c2c(C#N)sc3c2ccc(=O)n3-c2ccccc2)c1 (centres undefined) |
| ≤ 1000 | CCOC(=O)c1sc2c(ccc(=O)n2-c2ccccc2)c1NCc1ccccn1 |
| ≤ 1000 | CCOC(=O)c1sc2c(ccc(=O)n2-c2ccccc2)c1NC(C)c1ccccc1 (centres undefined) |
| ≤ 1000 | CCOC(=O)c1sc2c(ccc(=O)n2-c2ccccc2)c1N(C)Cc1ccccc1 |
| ≤ 1000 | CCOC(=O)c1sc2c(ccc(=O)n2-c2ccccc2)c1CCc1ccccc1 |
| ≤ 1000 | CCOC(=O)c1sc2c(ccc(=O)n2-c2ccccc2)c1S(=O)(=O)Nc1ccccc1 |
| ≤ 1000 | CCOC(=O)c1sc2c(ccc(=O)n2-c2ccccc2)c1C(O)c1cccc(C)n1 (centres undefined) |
| ≤ 1000 | CCOC(=O)c1sc2c(ccc(=O)n2-c2ccccc2)c1NC(=O)c1ccccc1 |

Source: the Kinase Knowledgebase extract (Sharma et al. 2016)
